Data from patent publication US12167995B2, “[((1R,2S,5R)-2-isopropyl-5-methyl-cyclohexanecarbonyl)-amino]-acetic acid isopropyl ester for treatment of chronic cough” (AXALBION SA, priority 2019, dated 2024).

How the values were obtained:
[1] = tested on: 87 primary molecular targets including 13 enzyme and 74 binding assays; experiment: Off-target pharmacology study (SafetyScreen87 assay); conditions: 100 μM AX-8
Description: In addition, an off-target pharmacology study (SafetyScreen87 assay by Eurofins Pharma Discovery Services) has been performed. This assay package consists of 87 primary molecular targets including 13 enzyme and 74 binding assays, representing potential safety issues.

[2] = tested on: refractory chronic cough (RCC); experiment: Clinical Trial 2: objective cough frequency (VitaloJAK 24-hour recording) in RCC patients; format: in vivo, human; design: Cough frequency, Ln Mean (SE), Treatment, 8 hours (GEE) / Cough frequency, Ln Mean (SE), Treatment, 4 hours (GEE) / Cough frequency, Ln Mean (SE), Treatment, 24 hours (GEE): unit not given here
Description: The primary objective of the study was to assess the effectiveness of AX-8 (the study drug) for the treatment of RCC and associated upper airway symptoms after one dose of treatment (an orally disintegrating tablet (ODT) having 5 mg AX-8, administered orally and dissolved on the tongue) in reducing awake cough frequency compared to baseline, for the purpose of planning a future randomized controlled trial. Subjects took a single orally disintegrating tablet (ODT) with 5 mg AX-8 in the morning on the first day of the treatment period (Day 1). This Investigational Medical Product (IMP) was let to dissolve on the tongue. […] Objective cough frequency was measured as 24-hour sound recordings using a custom-built digital recording device (VitaloJAK, Vitalograph, Ltd). VitaloJAK™ is a semi-automated 24-hour ambulatory cough monitoring system (Vitalograph; Buckinghamshire, England) operating in a manner which completely replicates routine practice. The 24-hour recordings are compressed using custom designed compression software, using an algorithm. The VitaloJAK™ is a reliable, robust and efficient tool for the objective measurement of cough frequency. Importantly it reduces 24-hour recordings by up to 98% whilst preserving close to 100% of recorded cough sounds. It is worn like a Holter monitor, with a single sensor affixed to the patient's chest wall. An optional second channel via a conventional microphone (worn, for example, on the patient's shirt) allows quality assurance with human intervention. The device itself is attached on the trousers, skirt, etc. The 24-hour cough frequency (coughs per hour) for a specified visit was calculated as: 24-hour cough frequency=(total number of cough events during the monitoring period (24-hour interval))/24. Awake cough frequency=(total number of cough events during the monitoring period (24-hour interval) while the subject was awake)/(total duration (in hours) during the monitoring period (24-hour interval) that the subject was awake). Percent change in awake cough frequency=[(Change from baseline in awake cough frequency×100)/(Baseline awake cough frequency)]. The proportion of participants with ≥30% of reduction from baseline in awake cough frequency is the number of participants with ≤−30% change in awake cough frequency divided by the total number of participants with available data. For awake and asleep cough frequencies, baseline and treatment data were compared using Wilcoxon signed rank test due to the skewed nature of the data. For 24 hour-, 8 hour-, and 4 hour-cough frequencies, baseline and treatment data were compared using General Estimating Equations (GEE) models. Prior to analysis, these cough count data were natural log (Ln) transformed in order to normalise the distribution of the data. As some individual hourly cough counts were zero, 0.1 was added to all values prior to transformation.

[3] = tested on: refractory chronic cough (RCC); experiment: Clinical Trial 2: Global Rating of Change Scale (GRCS); format: in vivo, human
Description: The GRCS was used by subjects to assess their overall status for the specified periods (the 4-hour period following dose; and the 24-hour period following dose). It consisted of a […] scale ranging from ‘a very great deal better’ to ‘a very great deal worse’.

[4] = Phase 1 study in healthy volunteers: safety and tolerability; format: in vivo, human; conditions: single dose 5 mg ODT, 12 healthy subjects; no remarkable adverse events
[5] = single 5 mg AX-8 ODT, treatment vs baseline

CC(C)OC(=O)CNC(=O)[C@@H]1C[C@H](C)CC[C@H]1C(C)C [AX-8, [((1R,2S,5R)-2-isopropyl-5-methyl-cyclohexanecarbonyl)-amino]-acetic acid isopropyl ester]
responses in SafetyScreen87 off-target panel [1]: No significant responses were observed
subjects with ≥30% reduction in 24-hour cough frequency per hour ([2]; 4/12 subjects): 33.3%
subjects with ≥30% reduction in awake cough frequency per hour ([2]; 4/12 subjects): 33.3%
subjects with ≥30% reduction in 4-hour cough frequency per hour ([2]; 5/12 subjects): 41.7%
subjects with ≥30% reduction in 8-hour cough frequency per hour ([2]; 7/12 subjects): 58.3%
Treatment ratio, 24 hours (GEE) ([2]; 95% CI −0.53 to 0.20, p=0.368): −0.166
reduction in cough frequency during sleep ([2]; from 7.1 to 3.7, may not be statistically significant): 48%
reduction in cough frequency during waking hours ([2]; from 64.1 to 54.8): 14.5%
Cough frequency, Ln Mean (SE), Treatment, 24 hours (GEE) ([2]; natural log transformed, 0.1 added, baseline 2.87 (0.19)): 2.70 (0.33)
Cough frequency, Ln Mean (SE), Treatment, 8 hours (GEE) ([2]; natural log transformed, 0.1 added, baseline 3.72 (0.22)): 3.26 (0.39)
Cough frequency, Ln Mean (SE), Treatment, 4 hours (GEE) ([2]; natural log transformed, 0.1 added, baseline 3.92 (0.19)): 3.38 (0.39)
Treatment ratio (95% CI), 8 hours (GEE) ([2]; p=0.033): −0.461 (−0.88 to −0.04)
Treatment ratio (95% CI), 4 hours (GEE) ([2]; p=0.047): −0.54 (−1.08 to −0.01)
Cough frequency, Median, Treatment, Asleep ([2]; single 5 mg AX-8 ODT, n=12, baseline 7.1, p=0.272 Wilcoxon): 3.7 (0.6-17.5) coughs/hour
Cough frequency, Median, Treatment, 24 hours ([2]; single 5 mg AX-8 ODT, n=12, baseline 48.1): 44.3 coughs/hour
Cough frequency, Median, Treatment, Awake ([2]; single 5 mg AX-8 ODT, n=12, baseline 64.1, p=0.034 Wilcoxon): 54.8 (16.4-79.5) coughs/hour
Cough frequency, Median, Treatment, 4 hours ([2]; single 5 mg AX-8 ODT, n=12, baseline 71.0): 53.4 coughs/hour
Cough frequency, Median, Treatment, 8 hours ([2]; single 5 mg AX-8 ODT, n=12, baseline 75.5): 45.4 coughs/hour
Cough frequency, Change of median, 4 hours [2, 5]: −24.8%
Cough frequency, Change of median, 8 hours [2, 5]: −39.9%
Cough frequency, Change of median, 24 hours [2, 5]: −7.90%
Cough frequency, Change of median, Asleep [2, 5]: −47.9%
Cough frequency, Change of median, Awake [2, 5]: −14.5%
Percentage Change, 8 hours (GEE) ([2]; treatment vs baseline, p=0.033): −36.9%
Percentage Change, 4 hours (GEE) ([2]; treatment vs baseline, p=0.047): −42.0%
Percentage Change, 24 hours (GEE) ([2]; treatment vs baseline, p=0.368): −15.3%
GRCS Cough Frequency: patients rating about the same, n (%) ([3]; 4 hours after treatment, n=12): 7 (58.3%)
GRCS Cough Frequency: patients rating better, n (%) ([3]; 4 hours after treatment, n=12): 4 (33.3%)
GRCS Cough Frequency: patients rating worse, n (%) ([3]; 4 hours after treatment, n=12): 1 (8.3%)
GRCS Cough Severity: patients rating about the same, n (%) ([3]; 4 hours after treatment, n=12): 6 (50%)
GRCS Cough Severity: patients rating better, n (%) ([3]; 4 hours after treatment, n=12): 5 (41.7%)
GRCS Cough Severity: patients rating worse, n (%) ([3]; 4 hours after treatment, n=12): 1 (8.3%)
GRCS Cough Frequency: patients rating about the same, n (%) ([3]; 24 hours after treatment, n=11): 6 (54.5%)
GRCS Cough Frequency: patients rating better, n (%) ([3]; 24 hours after treatment, n=11): 4 (36.4%)
GRCS Cough Frequency: patients rating worse, n (%) ([3]; 24 hours after treatment, n=11): 1 (9.1%)
GRCS Cough Severity: patients rating about the same, n (%) ([3]; 24 hours after treatment, n=11): 6 (54.5%)
GRCS Cough Severity: patients rating better, n (%) ([3]; 24 hours after treatment, n=11): 4 (36.4%)
GRCS Cough Severity: patients rating worse, n (%) ([3]; 24 hours after treatment, n=11): 1 (9.1%)
safety and tolerability [4]: well tolerated
